Laboratory results published in patent publication US9783509B2, “Six-membered C-N-linked aryl sulfide derivatives and aryl sulfoxide derivatives as pest conrol agents” (BAYER CROPSCIENCE AKTIENGESELLSCHAFT, priority 2013, dated 2017).
Read-outs that look alike come from different tables or passages of the source.

Experiments:
[1] = tested on: southern root-knot nematode (Meloidogyne incognita); experiment: Meloidogyne incognita test (sand, lettuce, acetone solvent, 14 days); format: in vivo; conditions: application rate 20 ppm, after 14 days; for pest or weed control at 20 ppm: Meloidogyne incognita, 336 h, read-out: nematicidal efficacy (formation of galls)
Experimental: Meloidogyne incognita Test
Solvent: 125.0 parts by weight of acetone
To produce an appropriate active ingredient formulation, 1 part by weight of active ingredient is mixed with the stated amount of solvent and the concentrate is diluted with water to the desired concentration.
Vessels are filled with sand, active ingredient solution, an egg/larvae suspension of the southern root-knot nematode (Meloidogyne incognita) and lettuce seeds. The lettuce seeds germinate and the plants develop. The galls develop on the roots
After 14 days, the nematicidal efficacy in % is determined by the formation of galls. 100% means that no galls were found; 0% means that the number of galls on the treated plants corresponds to the untreated control.

[2] = log P by reversed-phase HPLC analogously to OECD Guideline 117; format: physicochemical; conditions: for chromatographic logP: reversed-phase C18 HPLC column
Experimental: The log P values were determined analogously to OECD Guideline 117 (EC Directive 92/69/EEC) by HPLC (high-performance liquid chromatography) using reversed-phase columns (C 18), by the following methods:
[a] LC-MS determination in the acidic range is effected at pH 2.7 with 0.1% aqueous formic acid and acetonitrile (containing 0.1% formic acid) as eluents with a linear gradient from 10% acetonitrile to 95% acetonitrile; or with 0.025% aqueous trifluoroacetic acid and acetonitrile (containing 0.025% trifluoroacetic acid) as eluents with a linear gradient from 50% acetonitrile to 80% acetonitrile.
[b] LC-MS determination in the neutral range is effected at pH 7.8 with 0.001 molar aqueous ammonium hydrogencarbonate solution and acetonitrile as eluents; linear gradient from 10% acetonitrile to 95% acetonitrile.
Calibration is effected with solutions of a homologous series of unbranched alkan-2-ones (having 3 to 16 carbon atoms) with known log P values (log P values determined on the basis of the retention times by linear interpolation between two successive alkanones).

[3] = tested on: greenhouse red spider mite (Tetranychus urticae); experiment: Tetranychus urticae spray test, OP-resistant (bean leaf discs); format: in vivo; conditions: after 6 days; for pest or weed control at 500 g/ha: Tetranychus urticae, foliar, 144 h, read-out: efficacy (spider mites killed)
Experimental: Tetranychus urticae—Spray Test, OP-Resistant
Solvent: 78.0 parts by weight of acetone • • 1.5 parts by weight of dimethylformamide
Emulsifier: alkylaryl polyglycol ether
To produce an appropriate active ingredient formulation, 1 part by weight of active ingredient is dissolved using the specified parts by weight of solvent and made up with water containing an emulsifier concentration of 1000 ppm until the desired concentration is attained. To produce further test concentrations, the preparation is diluted with emulsifier-containing water.
Discs of bean leaves (Phaseolus vulgaris) infested by all stages of the greenhouse red spider mite (Tetranychus urticae) are sprayed with an active ingredient formulation of the desired concentration.
After 6 days, the efficacy in % is determined. 100% means that all the spider mites have been killed; 0% means that none of the spider mites have been killed.

[4] = [a] acidic range, pH 2.7, formic acid (or trifluoroacetic acid)/acetonitrile
[5] = [b] neutral range, pH 7.8, ammonium hydrogencarbonate/acetonitrile
[6] = pH 2.7, running text, [a] acidic range, pH 2.7, read-out: log P[a]
[7] = pH 2.7, table column, [a] acidic range, pH 2.7, formic acid (or trifluoroacetic acid)/acetonitrile, read-out: LogP[a]
[8] = pH 7.8, running text, [b] neutral range, pH 7.8, read-out: log P[b]
[9] = pH 7.8, table column, [b] neutral range, pH 7.8, ammonium hydrogencarbonate/acetonitrile, read-out: LogP[b]

SMILES	nematicidal efficacy (formation of galls) [1] [%]	LogP[a] [2, 4]	LogP[b] [2, 5]	efficacy (spider mites killed) ([3]; application rate 500 g/ha) [%]	other results
O=c1cnn(-c2cc([S+]([O-])CC(F)(F)F)c(Cl)cc2Cl)c(=O)[nH]1 (racemic) [compound 15]	90	2.02	1.1	–	–
Cc1cc(F)c(-n2ncc(=O)n(C(C)C)c2=O)cc1[S+]([O-])CC(F)(F)F (racemic) [compound 30]	100	2.64	2.58	100	–
Cc1cc(F)c(-n2ccc(=O)n(CC#N)c2=O)cc1[S+]([O-])CC(F)(F)F (racemic) [compound 61]	100	1.72	1.73	90	–
Cc1cc(F)c(-n2ccc(=O)n(CC3CC3)c2=O)cc1[S+]([O-])CC(F)(F)F (racemic) [compound 62]	100	2.29	2.37	90	–
Cc1cc(F)c(-n2ccc(=O)n(C(C)C)c2=O)cc1[S+]([O-])CC(F)(F)F (racemic) [compound 63]	100	2.22	2.31	90	–
Cc1cc(F)c(-n2ccc(=O)n(Cc3ccc(F)cc3)c2=O)cc1[S+]([O-])CC(F)(F)F (racemic) [compound 64]	100	2.68	2.77	–	efficacy (spider mites killed) ([3]; application rate 100 g/ha): 90%
C=CCn1c(=O)ccn(-c2cc([S+]([O-])CC(F)(F)F)c(C)cc2F)c1=O (racemic) [compound 65]	100	2.01	2.08	–	efficacy (spider mites killed) ([3]; application rate 100 g/ha): 90%
Cc1cc(F)c(-n2ccc(=O)n(C)c2=O)cc1SCC(F)(F)F [Ex. No. 53, 1-{2-Fluoro-4-methyl-5-[(2,2,2-trifluoroethyl)sulphanyl]phenyl}-3-methylpyrimidine-2,4(1H,3H)-dione]	–	–	–	–	pest or weed control at 20 ppm [1]: 100%; pest or weed control at 500 g/ha ([3]; application rate 500 g/ha): 90%; chromatographic logP [2, 6]: 2.59; chromatographic logP [2, 7]: 2.53; chromatographic logP [2, 8]: 2.53; chromatographic logP [2, 9]: 2.59
Cc1cc(F)c(-n2ccc(=O)[nH]c2=O)cc1[S+]([O-])CC(F)(F)F (stereo not shown) [Ex. No. 56, 1-{2-Fluoro-4-methyl-5-[(2,2,2-trifluoroethyl)sulphinyl]phenyl}pyrimidine-2,4(1H,3H)-dione]	–	–	–	–	pest or weed control at 20 ppm [1]: 90%; pest or weed control at 500 g/ha ([3]; application rate 500 g/ha): 100%; chromatographic logP [2, 6]: 1.3; chromatographic logP [2, 7]: 1.24; chromatographic logP [2, 8]: 1.24; chromatographic logP [2, 9]: 1.3
Cc1ccc(-n2ccc(=O)n(C)c2=O)cc1[S+]([O-])CC(F)(F)F (stereo not shown) [Ex. No. 57, 3-Methyl-1-{4-methyl-3-[(2,2,2-trifluoroethyl)sulphinyl]phenyl}pyrimidine-2,4(1H,3H)-dione]	–	–	–	–	pest or weed control at 20 ppm [1]: 90%; chromatographic logP [2, 6]: 1.5; chromatographic logP [2, 7]: 1.49; chromatographic logP [2, 8]: 1.49; chromatographic logP [2, 9]: 1.5
Cc1ccc(-n2ccc(=O)n(C)c2=O)cc1SCC(F)(F)F [Ex. No. 58, 3-Methyl-1-{4-methyl-3-[(2,2,2-trifluoroethyl)sulphanyl]phenyl}pyrimidine-2,4(1H,3H)-dione]	–	–	–	–	pest or weed control at 20 ppm [1]: 100%; pest or weed control at 500 g/ha ([3]; application rate 500 g/ha): 90%; chromatographic logP [2, 6]: 2.48; chromatographic logP [2, 7]: 2.39; chromatographic logP [2, 8]: 2.39; chromatographic logP [2, 9]: 2.48
CCn1c(=O)ccn(-c2cc([S+]([O-])CC(F)(F)F)c(C)cc2F)c1=O (stereo not shown) [Ex. No. 59, 3-Ethyl-1-{2-fluoro-4-methyl-5-[(2,2,2-trifluoroethyl)sulphinyl]phenyl}pyrimidine-2,4(1H,3H)-dione]	–	–	–	–	pest or weed control at 20 ppm [1]: 100%; pest or weed control at 500 g/ha ([3]; application rate 500 g/ha): 90%; chromatographic logP [2, 6]: 1.94; chromatographic logP [2, 7]: 1.88; chromatographic logP [2, 8]: 1.88; chromatographic logP [2, 9]: 1.94
CCn1c(=O)ccn(-c2cc(SCC(F)(F)F)c(C)cc2F)c1=O [Ex. No. 71, 3-Ethyl-1-{2-fluoro-4-methyl-5-[(2,2,2-trifluoroethyl)sulphanyl]phenyl}pyrimidine-2,4(1H,3H)-dione]	–	–	–	–	pest or weed control at 20 ppm [1]: 100%; pest or weed control at 500 g/ha ([3]; application rate 500 g/ha): 90%; chromatographic logP [2, 6]: 2.93; chromatographic logP [2, 7]: 2.86; chromatographic logP [2, 8]: 2.86; chromatographic logP [2, 9]: 2.93
O=c1cnn(-c2cc(SCC(F)(F)F)c(Cl)cc2Cl)c(=O)[nH]1 [compound 8]	90	2.72	1.4	–	–
O=c1cnn(-c2cc(SCC(F)(F)F)c(Cl)cc2Cl)c(=O)n1CC(F)(F)F [compound 12]	90	3.93	–	90	–
Cn1c(=O)cnn(-c2cc(SCC(F)(F)F)c(Cl)cc2Cl)c1=O [compound 14]	90	3.31	–	100	–
Cc1cc(F)c(-n2ncc(=O)n(CC#N)c2=O)cc1SCC(F)(F)F [compound 39]	90	2.96	2.9	100	–
C#CCn1c(=O)ccn(-c2cc([S+]([O-])CC(F)(F)F)c(C)cc2F)c1=O (stereo not shown) [compound 67]	100	1.86	1.92	–	efficacy (spider mites killed) ([3]; application rate 20 g/ha): 90%
COCn1c(=O)ccn(-c2cc([S+]([O-])CC(F)(F)F)c(C)cc2F)c1=O (stereo not shown) [compound 68]	100	1.67	1.74	90	–
Cc1cc(F)c(-n2ccc(=O)n(CC(C)C)c2=O)cc1[S+]([O-])CC(F)(F)F (stereo not shown) [compound 69]	100	2.48	2.55	–	–
Cc1cc(F)c(-n2ccc(=O)n(CC(F)F)c2=O)cc1[S+]([O-])CC(F)(F)F (stereo not shown) [compound 70]	100	2.06	2.11	90	–
Cc1cc(F)c(-n2ccc(=O)n(CC(F)(F)F)c2=O)cc1SCC(F)(F)F [compound 72]	100	3.16	3.29	90	–
Cc1cc(F)c(-n2ccc(=O)n(CC(C)C)c2=O)cc1SCC(F)(F)F [compound 81]	–	3.56	3.62	90	–
Cc1ccc(-n2ccc(=O)[nH]c2=O)cc1SCC(F)(F)F [compound 88]	–	1.99	2.05	90	–
Cc1cc(C)c(-n2ccc(=O)[nH]c2=O)cc1SCC(F)(F)F [compound 89]	–	2.18	2.25	100	–
Cc1ccc(-n2ccc(=O)[nH]c2=O)cc1[S+]([O-])CC(F)(F)F (stereo not shown) [compound 91]	–	1.20	1.19	100	–
Cc1cc(C)c([S+]([O-])CC(F)(F)F)cc1-n1ccc(=O)n(C)c1=O (stereo not shown) [compound 93]	–	1.68	1.7	100	–
Cc1cc(C)c(-n2ccc(=O)n(CC(F)(F)F)c2=O)cc1SCC(F)(F)F [compound 94]	–	3.39	3.49	100	–
CCn1c(=O)ccn(-c2cc(SCC(F)(F)F)c(C)cc2C)c1=O [compound 96]	–	2.98	3.07	100	–
Cc1cc(C)c([S+]([O-])CC(F)(F)F)cc1-n1ccc(=O)[nH]c1=O (stereo not shown) [compound 99]	–	1.35	1.38	100	–
